{"source": "the supplement of paper PMC10307832", "assay_in_all_cases": "relative viability (nuclei count vs DMSO), 5 days (fraction); higher = more cells survive", "key": {"BEN": {"tested_on": "BEN", "procedure,_shortened": "(§1)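 Lung cancer cell lines, seeded in 1536-well plates, were treated the following day by pin tool with a single drug or with five library-drug doses (not always all listed) in √10 steps on top of a fixed anchor-drug dose. Cells were fixed and nuclei stained in one step after 5 days, and nuclei were counted. Relative viability is the nuclei count for treated wells divided by that for vehicle wells, reported as medians of duplicate plates.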"}, "EKVX": {"tested_on": "EKVX", "procedure,_shortened": "as §1"}, "HARA": {"tested_on": "HARA", "procedure,_shortened": "as §1"}, "HCC-366": {"tested_on": "HCC-366", "procedure,_shortened": "as §1"}, "HCC-827": {"tested_on": "HCC-827", "procedure,_shortened": "as §1"}, "LOU-NH91": {"tested_on": "LOU-NH91", "procedure,_shortened": "as §1"}, "NCI-H1355": {"tested_on": "NCI-H1355", "procedure,_shortened": "as §1"}, "NCI-H1437": {"tested_on": "NCI-H1437", "procedure,_shortened": "as §1"}, "NCI-H1734": {"tested_on": "NCI-H1734", "procedure,_shortened": "as §1"}, "NCI-H1792": {"tested_on": "NCI-H1792", "procedure,_shortened": "as §1"}, "NCI-H1993": {"tested_on": "NCI-H1993", "procedure,_shortened": "as §1"}, "NCI-H2009": {"tested_on": "NCI-H2009", "procedure,_shortened": "as §1"}, "NCI-H2087": {"tested_on": "NCI-H2087", "procedure,_shortened": "as §1"}, "NCI-H2170": {"tested_on": "NCI-H2170", "procedure,_shortened": "as §1"}, "NCI-H2405": {"tested_on": "NCI-H2405", "procedure,_shortened": "as §1"}, "NCI-H647": {"tested_on": "NCI-H647", "procedure,_shortened": "as §1"}, "NCI-H661": {"tested_on": "NCI-H661", "procedure,_shortened": "as §1"}, "SK-LU-1": {"tested_on": "SK-LU-1", "procedure,_shortened": "as §1"}, "SK-MES-1": {"tested_on": "SK-MES-1", "procedure,_shortened": "as §1"}}}
{"smiles": "COc1cc2nccc(Oc3ccc(NC(=O)Nc4cc(C)on4)c(Cl)c3)c2cc1OC", "note": "[Tivozanib] + C[C@@H](Oc1cc(-c2cnn(C3CCNCC3)c2)cnc1N)c1c(Cl)ccc(F)c1Cl [Crizotinib] (partner 1 µM)", "values": [{"measurement": "relative viability", "setting": "BEN; first compound 0.005 µM", "result": 0.966}, {"measurement": "relative viability", "setting": "BEN; first compound 0.01581 µM", "result": 0.865}, {"measurement": "relative viability", "setting": "BEN; first compound 0.05 µM", "result": 0.647}, {"measurement": "relative viability", "setting": "BEN; first compound 0.5 µM", "result": 1.01}, {"measurement": "relative viability", "setting": "EKVX; first compound 0.005 µM", "result": 0.995}, {"measurement": "relative viability", "setting": "EKVX; first compound 0.01581 µM", "result": 1.02}, {"measurement": "relative viability", "setting": "EKVX; first compound 0.05 µM", "result": 0.819}, {"measurement": "relative viability", "setting": "EKVX; first compound 0.1581 µM", "result": 1.06}, {"measurement": "relative viability", "setting": "EKVX; first compound 0.5 µM", "result": 1.22}, {"measurement": "relative viability", "setting": "HARA; first compound 0.005 µM", "result": 0.976}, {"measurement": "relative viability", "setting": "HARA; first compound 0.01581 µM", "result": 1}, {"measurement": "relative viability", "setting": "HARA; first compound 0.05 µM", "result": 1.21}, {"measurement": "relative viability", "setting": "HARA; first compound 0.1581 µM", "result": 1.09}, {"measurement": "relative viability", "setting": "HARA; first compound 0.5 µM", "result": 0.974}, {"measurement": "relative viability", "setting": "HCC-366; first compound 0.005 µM", "result": 0.515}, {"measurement": "relative viability", "setting": "HCC-366; first compound 0.01581 µM", "result": 0.59}, {"measurement": "relative viability", "setting": "HCC-366; first compound 0.05 µM", "result": 0.502}, {"measurement": "relative viability", "setting": "HCC-366; first compound 0.1581 µM", "result": 0.487}, {"measurement": "relative viability", "setting": "HCC-366; first compound 0.5 µM", "result": 0.372}, {"measurement": "relative viability", "setting": "HCC-827; first compound 0.005 µM", "result": 0.956}, {"measurement": "relative viability", "setting": "HCC-827; first compound 0.01581 µM", "result": 0.928}, {"measurement": "relative viability", "setting": "HCC-827; first compound 0.05 µM", "result": 0.938}, {"measurement": "relative viability", "setting": "HCC-827; first compound 0.1581 µM", "result": 0.988}, {"measurement": "relative viability", "setting": "HCC-827; first compound 0.5 µM", "result": 0.866}, {"measurement": "relative viability", "setting": "LOU-NH91; first compound 0.005 µM", "result": 0.723}, {"measurement": "relative viability", "setting": "LOU-NH91; first compound 0.01581 µM", "result": 0.737}, {"measurement": "relative viability", "setting": "LOU-NH91; first compound 0.05 µM", "result": 0.77}, {"measurement": "relative viability", "setting": "LOU-NH91; first compound 0.1581 µM", "result": 0.774}, {"measurement": "relative viability", "setting": "LOU-NH91; first compound 0.5 µM", "result": 0.708}, {"measurement": "relative viability", "setting": "NCI-H1355; first compound 0.005 µM", "result": 1.03}, {"measurement": "relative viability", "setting": "NCI-H1355; first compound 0.01581 µM", "result": 1.03}, {"measurement": "relative viability", "setting": "NCI-H1355; first compound 0.05 µM", "result": 1.08}, {"measurement": "relative viability", "setting": "NCI-H1355; first compound 0.5 µM", "result": 1.07}, {"measurement": "relative viability", "setting": "NCI-H1437; first compound 0.005 µM", "result": 0.899}, {"measurement": "relative viability", "setting": "NCI-H1437; first compound 0.01581 µM", "result": 0.932}, {"measurement": "relative viability", "setting": "NCI-H1437; first compound 0.05 µM", "result": 0.859}, {"measurement": "relative viability", "setting": "NCI-H1437; first compound 0.1581 µM", "result": 0.947}, {"measurement": "relative viability", "setting": "NCI-H1437; first compound 0.5 µM", "result": 0.824}, {"measurement": "relative viability", "setting": "NCI-H1734; first compound 0.005 µM", "result": 0.616}, {"measurement": "relative viability", "setting": "NCI-H1734; first compound 0.01581 µM", "result": 0.63}, {"measurement": "relative viability", "setting": "NCI-H1734; first compound 0.05 µM", "result": 0.682}, {"measurement": "relative viability", "setting": "NCI-H1734; first compound 0.1581 µM", "result": 0.574}, {"measurement": "relative viability", "setting": "NCI-H1734; first compound 0.5 µM", "result": 0.565}, {"measurement": "relative viability", "setting": "NCI-H1792; first compound 0.005 µM", "result": 0.96}, {"measurement": "relative viability", "setting": "NCI-H1792; first compound 0.01581 µM", "result": 1.01}, {"measurement": "relative viability", "setting": "NCI-H1792; first compound 0.05 µM", "result": 1.07}, {"measurement": "relative viability", "setting": "NCI-H1792; first compound 0.1581 µM", "result": 0.933}, {"measurement": "relative viability", "setting": "NCI-H1792; first compound 0.5 µM", "result": 1.07}, {"measurement": "relative viability", "setting": "NCI-H1993; first compound 0.005 µM", "result": 0.764}, {"measurement": "relative viability", "setting": "NCI-H1993; first compound 0.01581 µM", "result": 0.852}, {"measurement": "relative viability", "setting": "NCI-H1993; first compound 0.05 µM", "result": 0.926}, {"measurement": "relative viability", "setting": "NCI-H1993; first compound 0.1581 µM", "result": 0.707}, {"measurement": "relative viability", "setting": "NCI-H1993; first compound 0.5 µM", "result": 0.852}, {"measurement": "relative viability", "setting": "NCI-H2009; first compound 0.005 µM", "result": 1.08}, {"measurement": "relative viability", "setting": "NCI-H2009; first compound 0.01581 µM", "result": 1.02}, {"measurement": "relative viability", "setting": "NCI-H2009; first compound 0.05 µM", "result": 1.1}, {"measurement": "relative viability", "setting": "NCI-H2009; first compound 0.1581 µM", "result": 1.03}, {"measurement": "relative viability", "setting": "NCI-H2009; first compound 0.5 µM", "result": 0.933}, {"measurement": "relative viability", "setting": "NCI-H2087; first compound 0.005 µM", "result": 0.797}, {"measurement": "relative viability", "setting": "NCI-H2087; first compound 0.01581 µM", "result": 0.862}, {"measurement": "relative viability", "setting": "NCI-H2087; first compound 0.05 µM", "result": 0.882}, {"measurement": "relative viability", "setting": "NCI-H2087; first compound 0.1581 µM", "result": 0.917}, {"measurement": "relative viability", "setting": "NCI-H2087; first compound 0.5 µM", "result": 0.668}, {"measurement": "relative viability", "setting": "NCI-H2170; first compound 0.005 µM", "result": 1.11}, {"measurement": "relative viability", "setting": "NCI-H2170; first compound 0.01581 µM", "result": 1.21}, {"measurement": "relative viability", "setting": "NCI-H2170; first compound 0.05 µM", "result": 1.24}, {"measurement": "relative viability", "setting": "NCI-H2170; first compound 0.5 µM", "result": 1.17}, {"measurement": "relative viability", "setting": "NCI-H2405; first compound 0.005 µM", "result": 0.859}, {"measurement": "relative viability", "setting": "NCI-H2405; first compound 0.01581 µM", "result": 0.846}, {"measurement": "relative viability", "setting": "NCI-H2405; first compound 0.05 µM", "result": 0.933}, {"measurement": "relative viability", "setting": "NCI-H2405; first compound 0.1581 µM", "result": 0.903}, {"measurement": "relative viability", "setting": "NCI-H2405; first compound 0.5 µM", "result": 0.803}, {"measurement": "relative viability", "setting": "NCI-H647; first compound 0.005 µM", "result": 0.925}, {"measurement": "relative viability", "setting": "NCI-H647; first compound 0.01581 µM", "result": 1.1}, {"measurement": "relative viability", "setting": "NCI-H647; first compound 0.05 µM", "result": 1.13}, {"measurement": "relative viability", "setting": "NCI-H647; first compound 0.1581 µM", "result": 1.05}, {"measurement": "relative viability", "setting": "NCI-H647; first compound 0.5 µM", "result": 0.991}, {"measurement": "relative viability", "setting": "NCI-H661; first compound 0.005 µM", "result": 0.961}, {"measurement": "relative viability", "setting": "NCI-H661; first compound 0.01581 µM", "result": 0.951}, {"measurement": "relative viability", "setting": "NCI-H661; first compound 0.05 µM", "result": 1.03}, {"measurement": "relative viability", "setting": "NCI-H661; first compound 0.5 µM", "result": 0.947}, {"measurement": "relative viability", "setting": "SK-LU-1; first compound 0.005 µM", "result": 0.909}, {"measurement": "relative viability", "setting": "SK-LU-1; first compound 0.01581 µM", "result": 0.864}, {"measurement": "relative viability", "setting": "SK-LU-1; first compound 0.05 µM", "result": 0.932}, {"measurement": "relative viability", "setting": "SK-LU-1; first compound 0.1581 µM", "result": 0.614}, {"measurement": "relative viability", "setting": "SK-LU-1; first compound 0.5 µM", "result": 0.84}, {"measurement": "relative viability", "setting": "SK-MES-1; first compound 0.005 µM", "result": 1.02}, {"measurement": "relative viability", "setting": "SK-MES-1; first compound 0.01581 µM", "result": 1.03}, {"measurement": "relative viability", "setting": "SK-MES-1; first compound 0.05 µM", "result": 1}, {"measurement": "relative viability", "setting": "SK-MES-1; first compound 0.1581 µM", "result": 0.995}, {"measurement": "relative viability", "setting": "SK-MES-1; first compound 0.5 µM", "result": 0.87}]}
